Assay results as given in patent US5196410A, “Transdermal flux enhancing compositions” (priority 1991, dated 1993).
In brackets after ≈: the same amount, converted by molar mass. Structures can show the parent of a compound that is named as a salt. Where two headings read alike, the source gives them in different places.

Columns and labels:
[1] = cited from earlier work
[2] = Saturation concentration of drug in vehicle
[3] = assay type: in vitro ADME, porcine; details: 32° C.
Procedure: Samples were removed periodically from the receiver side of the diffusion cell, mixed with a Z0 scintillation cocktail (Scintisol, Isolabs, Inc., Akron, OH) and counted for several minutes in a liquid scintillation counter (Model Mark III-6881, Tracor Analytical, Elk Grove Village, IL). Following an initial lag time of about 6 hours, the amount of
salicylic acid appearing in the receiver side was linear with time for the duration of the experiment (routinely 24 to 48 hours). […] This value, when divided by the specific acitivity of salicyclic acid in the saturated solution (approximately 300 dpm/mg) and the area of exposed skin (0.2 cm^2), yielded the flux (mg/cm^2/ hr). Samples removed from the donor side at the beginning and end of the experiment contained, within error, the same amount of salicylic acid. Thus, constant concentration of the permeant was maintained on the donor side throughout the experiment.

[4] = Infrared spectra of fatty acid treated porcine stratum corneum; details: C-H antisymmetric stretching; stratum corneum treated with […] fatty acid in ethanol, 30% (w/w) water
Procedure: (§1) Stratum corneum sheets were prepared from porcine skin by trypsin treatment. Thus, full thickness porcine skin samples were dermatomed to 350 μm thickness and spread, stratum corneum side up, on filter paper saturated with 0.5% crude trypsin in phosphate buffered saline at pH 7.4 (Sorensen's buffer). After several hours at 37° C. the stratum corneum was peeled away, washed in soybean trypsin inhibitor, water and air dried. Samples were stored desiccated at room temperature until used. Prior to use, dry skin samples of known weight were incubated for two hours in an 0.15M solution of the appropriate fatty acid in ethanol, the samples were then washed for ten seconds in ethanol, spread on wire mesh, dried over a desiccant and the dry sample reweighed. The stratum corneum samples were then held for several days in a chamber at 22° C., 95% relative humidity, during which the stratum corneum samples equilibrated to a water content of 30% (w/w).
Infrared spectra were obtained with a Fourier Transform Infrared Spectrometer^4 (FTIR) equipped with a liquid nitrogen cooled mercury-cadmium telluride detector. In order to prevent water loss, hydrated samples were sealed between zinc sulfide windows while maintained at 22° C., 95% relative humidity. Sealed samples were placed in the spectrometer where an average of 127 scans were obtained in about six minutes for each of the fatty acid treatments. The digitized data were transferred to a computer (Apple IIe) for determination of frequency and bandwidth of the C--H antisymmetric stretching absorbance. Due to the digital nature of the FTIR instrument, absorbance and frequency data exist only in discrete increments. With the instrument used, the exact value of any frequency point could only be determined with a precision not greater than 2.7 cm^-1. The peak frequency was estimated with much greater precision, however, using a center of gravity algorithm for digitized data reported by Cameron et al., Applied Spectr., 36 245-250 (1982).

[5] = Differential scanning calorimetry of fatty acid treated porcine stratum corneum; details: stratum corneum treated with […] fatty acid in ethanol, 30% (w/w) water
Procedure: as §1
The differential scanning calorimeter^5 was used at a scan rate of 0.75° C./minute. Duplicate samples from each of the above FTIR experiments were combined for DSC measurements. Alternately, stratum corneum samples of known weight (about 20 mg) were treated with each fatty acid in the same manner described above. Treated samples were hydrated for several days at 95% R.H., 22° C. and reweighed.

In the case of `CCCCCCCCCCCCN1CCCCCC1=O` [Azone, 1-dodecylazacycloheptan-2-one], the “ability to enhance percutaneous penetration” value ([1]; Stoughton, Arch. Derm.) is given as “ability to enhance percutaneous penetration” and the “enhancement of dermal penetration” value ([1]; flurbiprofen in propylene glycol and other solvents) is given as “enhance dermal penetration”.

In the case of `O=C(O)c1ccccc1O` [Salicylic acid, salicylic acid], the solubility ([2]; ethanol, organic solvent or mixture) is reported as 310 mg/mL (≈ 2240 mM), the initial lag time ([3]; salicylic acid in receiver) is reported as “about 6 hours” and the “Flux of Salicylic Acid” value ([3]; saturated salicylic acid in ethanol, no fatty acid (ethanol control)) is reported as 1.31 mg/cm^2 /hr.

With `COc1cc2nc(N3CCN(C(=O)C4COc5ccccc5O4)CC3)nc(N)c2cc1OC` (stereo not drawn) [doxazosin mesylate] the solubility ([2]; 30% ethanol/acetate buffer, pH 5, organic solvent or mixture) was 8.95 mg/mL.

For `CCCCCC/C=C/CCCCCCCCCC(=O)O` [trans-vaccenic, trans-vaccenic acid], the Peak IR Frequency [4] was 2920 cm⁻¹, the “Flux of Salicylic Acid” value ([3]; saturated salicylic acid in ethanol with […] of the fatty acid) was 1.11 mg/cm^2 /hr and the “DSC Tm (temperature of the transition maximum)” value [5] was 61.0 °C.
